In patent US11332459B2 (TEIJIN PHARMA LIMITED, priority 2017, dated 2022):
Where a name gives a salt, the structure may show the parent alone.

Target: T1, human TRPC6 (Homo sapiens, UniProt Q9Y210)
T1 construct: expressed in transfected cells
T1 sequence (Q9Y210 1-931): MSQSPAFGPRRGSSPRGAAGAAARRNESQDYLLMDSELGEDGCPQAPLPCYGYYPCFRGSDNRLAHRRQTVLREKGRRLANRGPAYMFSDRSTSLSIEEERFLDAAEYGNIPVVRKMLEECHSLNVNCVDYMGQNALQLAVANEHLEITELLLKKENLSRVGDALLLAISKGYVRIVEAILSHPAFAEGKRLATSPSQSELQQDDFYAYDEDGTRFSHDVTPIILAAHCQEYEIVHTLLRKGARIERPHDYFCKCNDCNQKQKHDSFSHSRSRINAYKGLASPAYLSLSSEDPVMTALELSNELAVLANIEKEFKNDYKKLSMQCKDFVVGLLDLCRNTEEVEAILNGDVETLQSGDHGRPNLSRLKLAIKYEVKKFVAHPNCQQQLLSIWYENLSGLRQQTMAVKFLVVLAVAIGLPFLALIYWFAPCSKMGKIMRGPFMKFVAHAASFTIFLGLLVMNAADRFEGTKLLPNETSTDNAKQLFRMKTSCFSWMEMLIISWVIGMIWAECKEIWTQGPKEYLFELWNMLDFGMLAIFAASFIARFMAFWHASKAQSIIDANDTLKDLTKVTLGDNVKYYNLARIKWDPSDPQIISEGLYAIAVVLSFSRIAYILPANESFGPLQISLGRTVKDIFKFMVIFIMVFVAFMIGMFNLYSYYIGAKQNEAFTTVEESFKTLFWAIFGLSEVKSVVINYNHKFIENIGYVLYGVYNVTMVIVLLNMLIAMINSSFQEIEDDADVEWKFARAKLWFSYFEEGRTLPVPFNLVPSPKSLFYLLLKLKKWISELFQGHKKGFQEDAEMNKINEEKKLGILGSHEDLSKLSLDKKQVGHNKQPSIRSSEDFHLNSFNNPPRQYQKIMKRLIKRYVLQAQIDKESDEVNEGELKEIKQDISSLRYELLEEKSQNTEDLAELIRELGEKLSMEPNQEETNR
Assay: TRPC6 calcium flux assay (FLIPR, OAG-stimulated calcium influx)
Format: cell-based
Details: HEK293 cells stably transfected with human TRPC6, read-out: hTRPC6 Potency
Summary of the method: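 IC50 derived by plotting background-corrected peak fluorescence (180 s window, normalized to OAG-triggered signal vs buffer) against dose. Stable human TRPC6 HEK293 line was dye-loaded, exposed to compound 25 min, then challenged with 50 uM final OAG in 2 mM Ca2+ HEPES buffer pH 7.2, 0.5% DMSO.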

| IC50 | Structure (SMILES) |
| --- | --- |
| 150 nM | CC(C)NC(=O)Cn1c(N2CC[C@@H](F)[C@H](N)C2)nc2cc(F)c(F)cc21 [Example 235, 2-(2-((3R,4R)-3-amino-4-fluoropiperidin-1-yl)-5,6-difluoro-1H-benzo[d]imidazol-1-yl)-N-isopropylacetamide] |
| 23.8 nM | N[C@@H]1CN(c2nc3cc(F)c(F)cc3n2CC(=O)N2CCC2)CC[C@H]1F [Example 236, 2-(2-((3R,4R)-3-amino-4-fluoropiperidin-1-yl)-5,6-difluoro-1H-benzo[d]imidazol-1-yl)-1-(azetidin-1-yl)ethanone] |
| > 3750 nM | COc1cnc(Cn2c(N3CC[C@@H](F)[C@H](N)C3)nc3cc(C#N)ccc32)nc1 [Example 241, 2-((3R,4R)-3-amino-4-fluoropiperidin-1-yl)-1-((5-methoxypyrimidin-2-yl)methyl)-1H-benzo[d]imidazole-5-carbonitrile hydrochloride] |
| 73.5 nM | COc1cnc(Cn2c(N3CC[C@@H](F)[C@H](N)C3)nc3ccc(C#N)cc32)nc1 [Example 242, 2-((3R,4R)-3-amino-4-fluoropiperidin-1-yl)-1-((5-methoxypyrimidin-2-yl)methyl)-1H-benzo[d]imidazole-6-carbonitrile hydrochloride] |
| 1970 nM | N#Cc1ccc2nc(N3CC[C@@H](F)[C@H](N)C3)n(Cc3ccc(C(F)(F)F)nc3)c2c1 [Example 243, 2-((3R,4R)-3-amino-4-fluoropiperidin-1-yl)-1-((6-(trifluoromethyl)pyridin-3-yl)methyl)-1H-benzo[d]imidazole-6-carbonitrile hydrochloride] |
| > 3750 nM | N#Cc1ccc2c(c1)nc(N1CC[C@@H](F)[C@H](N)C1)n2Cc1ccc(C(F)(F)F)nc1 [Example 244, 2-((3R,4R)-3-amino-4-fluoropiperidin-1-yl)-1-((6-(trifluoromethyl)pyridin-3-yl)methyl)-1H-benzo[d]imidazole-5-carbonitrile hydrochloride] |
| 62.5 nM | CN1CC[C@H](n2c(N3CC[C@@H](F)[C@H](N)C3)nc3cc(F)c(F)cc32)C1=O [Example 245, (S)-3-(2-((3R,4R)-3-amino-4-fluoropiperidin-1-yl)-5,6-difluoro-1H-benzo[d]imidazol-1-yl)-1-methylpyrrolidin-2-one] |
| 2920 nM | CN1CC[C@@H](n2c(N3CC[C@@H](F)[C@H](N)C3)nc3cc(F)c(F)cc32)C1=O [Example 246, (R)-3-(2-((3R,4R)-3-amino-4-fluoropiperidin-1-yl)-5,6-difluoro-1H-benzo[d]imidazol-1-yl)-1-methylpyrrolidin-2-one] |
| 75.4 nM | N[C@@H]1CN(c2nc3cc(F)c(F)cc3n2[C@H]2CCN(c3ccc(Cl)cc3)C2=O)CC[C@H]1F [Example 247, (S)-3-(2-((3R,4R)-3-amino-4-fluoropiperidin-1-yl)-5,6-difluoro-1H-benzo[d]imidazol-1-yl)-1-(4-chlorophenyl)pyrrolidin-2-one] |
| 5.07 nM | N[C@@H]1CN(c2nc3cc(F)c(F)cc3n2[C@@H]2CCN(c3ccc(Cl)cc3)C2=O)CC[C@H]1F [Example 248, (R)-3-(2-((3R,4R)-3-amino-4-fluoropiperidin-1-yl)-5,6-difluoro-1H-benzo[d]imidazol-1-yl)-1-(4-chlorophenyl)pyrrolidin-2-one] |
| 7.65 nM | N#Cc1ccc2nc(N3CC[C@@H](F)[C@H](N)C3)n(Cc3cnc(C#N)cn3)c2c1 [Example 249, 2-((3R,4R)-3-amino-4-fluoro-1-piperidinyl)-1-((5-cyano-2-pyrazinyl)methyl)-1H-benzimidazole-6-carbonitrile] |
| 78.5 nM | N#Cc1ccc2c(c1)nc(N1CC[C@@H](F)[C@H](N)C1)n2Cc1cnc(C#N)cn1 [Example 250, 2-((3R,4R)-3-amino-4-fluoro-1-piperidinyl)-1-((5-cyano-2-pyrazinyl)methyl)-1H-benzimidazole-5-carbonitrile] |
| 17.2 nM | N#Cc1cnc(Cn2c(N3CC[C@@H](F)[C@H](N)C3)nc3c(F)cc(F)cc32)cn1 [Example 251, 5-((2-((3R,4R)-3-amino-4-fluoro-1-piperidinyl)-4,6-difluoro-1H-benzimidazol-1-yl)methyl)-2-pyrazinecarbonitrile] |
| 8.76 nM | N#Cc1cnc(Cn2c(N3CC[C@@H](F)[C@H](N)C3)nc3cc(F)cc(F)c32)cn1 [Example 252, 5-((2-((3R,4R)-3-amino-4-fluoro-1-piperidinyl)-5,7-difluoro-1H-benzimidazol-1-yl)methyl)-2-pyrazinecarbonitrile] |
| 406 nM | CN[C@H]1CCCN(c2nc3ccccc3n2Cc2ccc(F)cn2)C1 [Example 253, (3S)-1-(1-((5-fluoro-2-pyridinyl)methyl)-1H-benzimidazol-2-yl)-N-methyl-3-piperidinamine] |
| 73.9 nM | CN[C@H]1CCCN(c2nc3ccccc3n2Cc2ccc(Cl)cn2)C1 [Example 254, (3S)-1-(1-((5-chloro-2-pyridinyl)methyl)-1H-benzimidazol-2-yl)-N-methyl-3-piperidinamine] |
| 101 nM | CN[C@H]1CCCN(c2nc3ccccc3n2[C@H](C)c2ccc(C#N)cn2)C1 [Example 255, 6-((1R)-1-(2-((3S)-3-(methylamino)-1-piperidinyl)-1H-benzimidazol-1-yl)ethyl)-3-pyridinecarbonitrile] |
| 19.4 nM | CN[C@H]1CCCN(c2nc3ccccc3n2[C@@H](C)c2ccc(C#N)cn2)C1 [Example 256, 6-((1S)-1-(2-((3S)-3-(methylamino)-1-piperidinyl)-1H-benzimidazol-1-yl)ethyl)-3-pyridinecarbonitrile] |
| 52.4 nM | N[C@@H]1CN(c2nc3cc(F)cc(F)c3n2Cc2ncc(Cl)cn2)CC[C@H]1F [Example 257, (3R,4R)-1-(1-((5-chloro-2-pyrimidinyl)methyl)-5,7-difluoro-1H-benzimidazol-2-yl)-4-fluoro-3-piperidinamine] |
| 0.288 nM | N[C@@H]1CN(c2nc3c(F)cc(F)cc3n2Cc2ncc(Cl)cn2)CC[C@H]1F [Example 258, (3R,4R)-1-(1-((5-chloro-2-pyrimidinyl)methyl)-4,6-difluoro-1H-benzimidazol-2-yl)-4-fluoro-3-piperidinamine] |
| 1430 nM | Cn1ncc2c(Cn3c(N4CC[C@@H](F)[C@H](N)C4)nc4cc(F)c(F)cc43)cccc21 [Example 259, (3R,4R)-1-(5,6-difluoro-1-((1-methyl-1H-indazol-4-yl)methyl)-1H-benzimidazol-2-yl)-4-fluoro-3-piperidinamine] |
| 376 nM | N[C@@H]1CN(c2nc3cc(F)c(F)cc3n2Cc2cccc3ncccc23)CC[C@H]1F [Example 260, (3R,4R)-1-(5,6-difluoro-1-(5-quinolinylmethyl)-1H-benzimidazol-2-yl)-4-fluoro-3-piperidinamine] |
| > 3750 nM | C[C@H](c1cccc2cccnc12)n1c(N2CC[C@@H](F)[C@H](N)C2)nc2cc(F)c(F)cc21 [Example 261, (3R,4R)-1-(5,6-difluoro-1-((1R)-1-(8-quinolinyl)ethyl)-1H-benzimidazol-2-yl)-4-fluoro-3-piperidinamine] |
| 280 nM | C[C@@H](c1cccc2cccnc12)n1c(N2CC[C@@H](F)[C@H](N)C2)nc2cc(F)c(F)cc21 [Example 262, (3R,4R)-1-(5,6-difluoro-1-((1S)-1-(8-quinolinyl)ethyl)-1H-benzimidazol-2-yl)-4-fluoro-3-piperidinamine] |
| 765 nM | N[C@@H]1CN(c2nc3cc(F)c(F)cc3n2Cc2cc(-c3cccc(Cl)c3)no2)CC[C@H]1F [Example 263, (3R,4R)-1-(1-((3-(3-chlorophenyl)-1,2-oxazol-5-yl)methyl)-5,6-difluoro-1H-benzimidazol-2-yl)-4-fluoro-3-piperidinamine] |
| 217 nM | Cn1ncc2cccc(Cn3c(N4CC[C@@H](F)[C@H](N)C4)nc4cc(F)c(F)cc43)c21 [Example 264, (3R,4R)-1-(5,6-difluoro-1-((1-methyl-1H-indazol-7-yl)methyl)-1H-benzimidazol-2-yl)-4-fluoro-3-piperidinamine] |
| 2860 nM | N[C@@H]1CN(c2nc3cc(F)c(F)cc3n2Cc2c(Cl)cccc2Cl)CC[C@H]1F [Example 265, (3R,4R)-1-(1-(2,6-dichlorobenzyl)-5,6-difluoro-1H-benzimidazol-2-yl)-4-fluoro-3-piperidinamine] |
| 15800 nM | CN[C@H]1CCCN(c2nc3ccccc3n2CC(=O)N2CCC2)C1 [Example 266, 1-(1-azetidinyl)-2-(2-((3S)-3-(methylamino)-1-piperidinyl)-1H-benzimidazol-1-yl)ethanone] |
